Test results from PMC10905675, “INX-315, a Selective CDK2 Inhibitor, Induces Cell Cycle Arrest and Senescence in Solid Tumors” (Cancer Discovery, 2023).

Key:
Test in all cases: SelectScreen LanthaScreen Binding
Conditions in all cases: INX-0315 at 100nM
[1] = molecular target: T1, STK38L (NDR2) (Homo sapiens, UniProt Q9Y2H1)
T1 construct: purchased Thermo Fisher Scientific SelectScreen (plus Nanosyn / Reaction Biology for CDK/cyclin lines)
Text: (§1) INX-315 was first evaluated in the SelectScreen Biochemical Kinase Profiling at Thermo Fisher Scientific (Madison, WI). The primary screen consisted of INX-315 dosed at a single concentration of 100 nmol/L in 1% DMSO across each platform within the SelectScreen array of assays, LanthaScreen Eu Kinase Binding Assay; AdaptaScreen; and Z'LyteScreen using preestablished conditions at Thermo Fisher Scientific as shown in Supplementary Table S2. […] The follow-up screen consisted of 10-point dose–response curves for INX-315 from 1 µmol/L to 0.0495 nmol/L.

[2] = molecular target: T2, TNIK (Homo sapiens, UniProt Q9UKE5)
T2 construct: purchased Thermo Fisher Scientific SelectScreen (plus Nanosyn / Reaction Biology for CDK/cyclin lines)
Text: as §1

[3] = molecular target: T3, SIK3 (Homo sapiens, UniProt Q9Y2K2)
T3 construct: purchased Thermo Fisher Scientific SelectScreen (plus Nanosyn / Reaction Biology for CDK/cyclin lines)
Text: as §1

[4] = molecular target: T4, MAPK15 (ERK7) (Homo sapiens, UniProt Q8TD08)
T4 construct: purchased Thermo Fisher Scientific SelectScreen (plus Nanosyn / Reaction Biology for CDK/cyclin lines)
Text: as §1

[5] = molecular target: T5, MAP3K5 (ASK1) (Homo sapiens, UniProt Q99683)
T5 construct: purchased Thermo Fisher Scientific SelectScreen (plus Nanosyn / Reaction Biology for CDK/cyclin lines)
Text: as §1

[6] = molecular target: T6, ABL1 M351T (Homo sapiens, UniProt P00519, M351T)
T6 construct: purchased Thermo Fisher Scientific SelectScreen (plus Nanosyn / Reaction Biology for CDK/cyclin lines)
Text: as §1

[7] = molecular target: T7, MAP4K3 (GLK) (Homo sapiens, UniProt Q8IVH8)
T7 construct: purchased Thermo Fisher Scientific SelectScreen (plus Nanosyn / Reaction Biology for CDK/cyclin lines)
Text: as §1

[8] = molecular target: T8, MAP3K7/MAP3K7IP1 (TAK1-TAB1) (Homo sapiens, UniProt O43318)
T8 construct: purchased Thermo Fisher Scientific SelectScreen (plus Nanosyn / Reaction Biology for CDK/cyclin lines)
Text: as §1

[9] = molecular target: T9, TGFBR1 (ALK5) (Homo sapiens, UniProt P36897)
T9 construct: purchased Thermo Fisher Scientific SelectScreen (plus Nanosyn / Reaction Biology for CDK/cyclin lines)
Text: as §1

[10] = molecular target: T10, EPHA7 (Homo sapiens, UniProt Q15375)
T10 construct: purchased Thermo Fisher Scientific SelectScreen (plus Nanosyn / Reaction Biology for CDK/cyclin lines)
T10 sequence (Q15375 28-998): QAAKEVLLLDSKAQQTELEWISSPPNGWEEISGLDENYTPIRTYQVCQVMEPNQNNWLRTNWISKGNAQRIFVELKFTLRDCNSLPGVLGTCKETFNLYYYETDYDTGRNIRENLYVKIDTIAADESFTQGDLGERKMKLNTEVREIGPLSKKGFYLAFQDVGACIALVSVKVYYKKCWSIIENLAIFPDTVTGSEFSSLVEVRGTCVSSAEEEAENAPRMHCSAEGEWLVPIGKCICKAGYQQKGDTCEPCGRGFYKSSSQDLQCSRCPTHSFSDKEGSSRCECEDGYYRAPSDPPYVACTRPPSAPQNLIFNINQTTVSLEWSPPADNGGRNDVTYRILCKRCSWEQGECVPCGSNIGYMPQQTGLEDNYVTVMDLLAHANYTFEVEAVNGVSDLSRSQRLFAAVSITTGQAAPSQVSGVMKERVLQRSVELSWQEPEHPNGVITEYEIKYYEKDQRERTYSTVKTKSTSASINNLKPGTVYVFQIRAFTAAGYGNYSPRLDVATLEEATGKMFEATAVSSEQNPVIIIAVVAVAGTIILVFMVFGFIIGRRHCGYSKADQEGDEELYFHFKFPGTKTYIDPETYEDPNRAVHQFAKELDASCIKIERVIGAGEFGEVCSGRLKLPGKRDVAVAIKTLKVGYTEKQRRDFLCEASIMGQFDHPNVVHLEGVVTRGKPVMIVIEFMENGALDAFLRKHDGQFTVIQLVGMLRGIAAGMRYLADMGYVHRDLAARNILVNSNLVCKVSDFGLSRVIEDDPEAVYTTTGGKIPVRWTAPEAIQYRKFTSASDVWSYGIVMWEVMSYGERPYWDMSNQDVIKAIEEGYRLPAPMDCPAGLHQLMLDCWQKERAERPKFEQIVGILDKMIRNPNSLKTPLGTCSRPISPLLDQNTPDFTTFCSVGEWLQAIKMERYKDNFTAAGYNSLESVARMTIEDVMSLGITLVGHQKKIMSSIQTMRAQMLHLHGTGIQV
Text: as §1

[11] = molecular target: T11, ICK (Homo sapiens, UniProt Q9UPZ9)
T11 construct: purchased Thermo Fisher Scientific SelectScreen (plus Nanosyn / Reaction Biology for CDK/cyclin lines)
Text: as §1

[12] = molecular target: T12, KIT T670E (Homo sapiens, UniProt P10721, T670E)
T12 construct: purchased Thermo Fisher Scientific SelectScreen (plus Nanosyn / Reaction Biology for CDK/cyclin lines)
Text: as §1

[13] = molecular target: T13, ABL1 H396P (Homo sapiens, UniProt P00519, H396P)
T13 construct: purchased Thermo Fisher Scientific SelectScreen (plus Nanosyn / Reaction Biology for CDK/cyclin lines)
Text: as §1

[14] = molecular target: T14, CDK16 (PCTK1)/cyclin Y (Homo sapiens, UniProt Q00536)
T14 construct: purchased Thermo Fisher Scientific SelectScreen (plus Nanosyn / Reaction Biology for CDK/cyclin lines)
Text: as §1

[15] = molecular target: T15, TESK1 (Homo sapiens, UniProt Q15569)
T15 construct: purchased Thermo Fisher Scientific SelectScreen (plus Nanosyn / Reaction Biology for CDK/cyclin lines)
T15 sequence (Q15569 whole entry): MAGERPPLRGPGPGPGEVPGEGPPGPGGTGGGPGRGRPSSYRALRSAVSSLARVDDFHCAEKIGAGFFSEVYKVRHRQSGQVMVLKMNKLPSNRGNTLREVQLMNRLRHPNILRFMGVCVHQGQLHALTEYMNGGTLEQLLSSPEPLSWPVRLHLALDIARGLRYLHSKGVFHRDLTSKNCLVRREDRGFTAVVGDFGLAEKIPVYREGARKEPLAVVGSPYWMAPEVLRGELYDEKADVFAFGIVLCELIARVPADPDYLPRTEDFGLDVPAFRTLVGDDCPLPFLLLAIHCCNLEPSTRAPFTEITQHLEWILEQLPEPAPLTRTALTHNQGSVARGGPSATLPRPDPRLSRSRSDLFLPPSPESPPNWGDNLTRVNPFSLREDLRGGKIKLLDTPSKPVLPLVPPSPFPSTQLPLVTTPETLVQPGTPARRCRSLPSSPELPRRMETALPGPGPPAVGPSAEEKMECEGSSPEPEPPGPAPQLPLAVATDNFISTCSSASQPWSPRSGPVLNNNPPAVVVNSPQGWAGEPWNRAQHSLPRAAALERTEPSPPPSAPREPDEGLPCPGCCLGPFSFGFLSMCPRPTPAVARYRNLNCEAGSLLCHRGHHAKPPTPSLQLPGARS
Text: as §1

[16] = molecular target: T16, CAMKK2 (CaMKK beta) (Homo sapiens, UniProt Q96RR4)
T16 construct: purchased Thermo Fisher Scientific SelectScreen (plus Nanosyn / Reaction Biology for CDK/cyclin lines)
Text: as §1

[17] = molecular target: T17, MLK4 (Homo sapiens, UniProt Q5TCX8)
T17 construct: purchased Thermo Fisher Scientific SelectScreen (plus Nanosyn / Reaction Biology for CDK/cyclin lines)
Text: as §1

[18] = molecular target: T18, AAK1 (Homo sapiens, UniProt Q2M2I8)
T18 construct: purchased Thermo Fisher Scientific SelectScreen (plus Nanosyn / Reaction Biology for CDK/cyclin lines)
Text: as §1

[19] = molecular target: T19, AMPK (A1/B1/G3) (Homo sapiens, UniProt Q13131)
T19 construct: purchased Thermo Fisher Scientific SelectScreen (plus Nanosyn / Reaction Biology for CDK/cyclin lines)
Text: as §1

[20] = molecular target: T20, EGFR (ErbB1) d746-750 (Homo sapiens, UniProt P00533, DEL746-750)
T20 construct: purchased Thermo Fisher Scientific SelectScreen (plus Nanosyn / Reaction Biology for CDK/cyclin lines)
Text: as §1

[21] = molecular target: T21, ALK R1275Q (Homo sapiens, UniProt Q9UM73, R1275Q)
T21 construct: purchased Thermo Fisher Scientific SelectScreen (plus Nanosyn / Reaction Biology for CDK/cyclin lines)
Text: as §1

[22] = molecular target: T22, BRAF V599E (Homo sapiens, UniProt P15056, V600E)
T22 construct: purchased Thermo Fisher Scientific SelectScreen (plus Nanosyn / Reaction Biology for CDK/cyclin lines)
Text: as §1

[23] = molecular target: T23, STK16 (PKL12) (Homo sapiens, UniProt O75716)
T23 construct: purchased Thermo Fisher Scientific SelectScreen (plus Nanosyn / Reaction Biology for CDK/cyclin lines)
Text: as §1

[24] = molecular target: T24, ACVR2A (Homo sapiens, UniProt P27037)
T24 construct: purchased Thermo Fisher Scientific SelectScreen (plus Nanosyn / Reaction Biology for CDK/cyclin lines)
T24 sequence (P27037 20-513): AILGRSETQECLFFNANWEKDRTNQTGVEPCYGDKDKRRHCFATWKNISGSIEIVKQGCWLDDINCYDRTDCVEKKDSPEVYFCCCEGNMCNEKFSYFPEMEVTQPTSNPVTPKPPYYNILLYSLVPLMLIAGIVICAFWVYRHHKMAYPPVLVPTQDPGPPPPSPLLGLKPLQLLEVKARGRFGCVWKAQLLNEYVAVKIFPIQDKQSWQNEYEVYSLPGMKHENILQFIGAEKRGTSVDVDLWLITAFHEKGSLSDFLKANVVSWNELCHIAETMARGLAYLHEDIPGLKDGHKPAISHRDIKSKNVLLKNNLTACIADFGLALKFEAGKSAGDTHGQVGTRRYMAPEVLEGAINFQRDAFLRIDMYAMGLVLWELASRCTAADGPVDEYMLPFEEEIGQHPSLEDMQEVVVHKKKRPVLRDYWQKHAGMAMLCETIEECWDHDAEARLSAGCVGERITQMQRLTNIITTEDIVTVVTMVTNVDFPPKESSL
Text: as §1

[25] = molecular target: T25, FGFR1 V561M (Homo sapiens, UniProt P11362, V561M)
T25 construct: purchased Thermo Fisher Scientific SelectScreen (plus Nanosyn / Reaction Biology for CDK/cyclin lines)
Text: as §1

[26] = molecular target: T26, ULK3 (Homo sapiens, UniProt Q6PHR2)
T26 construct: purchased Thermo Fisher Scientific SelectScreen (plus Nanosyn / Reaction Biology for CDK/cyclin lines)
T26 sequence (Q6PHR2 whole entry): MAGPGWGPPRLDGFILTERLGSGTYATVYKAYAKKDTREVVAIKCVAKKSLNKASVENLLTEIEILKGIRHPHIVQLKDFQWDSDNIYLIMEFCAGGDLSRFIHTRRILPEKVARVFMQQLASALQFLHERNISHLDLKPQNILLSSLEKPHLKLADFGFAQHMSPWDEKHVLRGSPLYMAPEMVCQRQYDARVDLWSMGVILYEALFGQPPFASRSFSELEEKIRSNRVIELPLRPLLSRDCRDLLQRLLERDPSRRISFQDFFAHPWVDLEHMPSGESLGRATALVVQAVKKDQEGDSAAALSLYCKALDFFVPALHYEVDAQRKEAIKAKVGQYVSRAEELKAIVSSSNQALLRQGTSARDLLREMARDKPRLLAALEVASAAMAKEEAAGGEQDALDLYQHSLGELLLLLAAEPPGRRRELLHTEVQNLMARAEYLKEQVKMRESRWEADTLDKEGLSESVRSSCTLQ
Text: as §1

[27] = molecular target: T27, CDK13/cyclin K (Homo sapiens, UniProt Q14004)
T27 construct: purchased Thermo Fisher Scientific SelectScreen (plus Nanosyn / Reaction Biology for CDK/cyclin lines)
T27 sequence (Q14004 whole entry): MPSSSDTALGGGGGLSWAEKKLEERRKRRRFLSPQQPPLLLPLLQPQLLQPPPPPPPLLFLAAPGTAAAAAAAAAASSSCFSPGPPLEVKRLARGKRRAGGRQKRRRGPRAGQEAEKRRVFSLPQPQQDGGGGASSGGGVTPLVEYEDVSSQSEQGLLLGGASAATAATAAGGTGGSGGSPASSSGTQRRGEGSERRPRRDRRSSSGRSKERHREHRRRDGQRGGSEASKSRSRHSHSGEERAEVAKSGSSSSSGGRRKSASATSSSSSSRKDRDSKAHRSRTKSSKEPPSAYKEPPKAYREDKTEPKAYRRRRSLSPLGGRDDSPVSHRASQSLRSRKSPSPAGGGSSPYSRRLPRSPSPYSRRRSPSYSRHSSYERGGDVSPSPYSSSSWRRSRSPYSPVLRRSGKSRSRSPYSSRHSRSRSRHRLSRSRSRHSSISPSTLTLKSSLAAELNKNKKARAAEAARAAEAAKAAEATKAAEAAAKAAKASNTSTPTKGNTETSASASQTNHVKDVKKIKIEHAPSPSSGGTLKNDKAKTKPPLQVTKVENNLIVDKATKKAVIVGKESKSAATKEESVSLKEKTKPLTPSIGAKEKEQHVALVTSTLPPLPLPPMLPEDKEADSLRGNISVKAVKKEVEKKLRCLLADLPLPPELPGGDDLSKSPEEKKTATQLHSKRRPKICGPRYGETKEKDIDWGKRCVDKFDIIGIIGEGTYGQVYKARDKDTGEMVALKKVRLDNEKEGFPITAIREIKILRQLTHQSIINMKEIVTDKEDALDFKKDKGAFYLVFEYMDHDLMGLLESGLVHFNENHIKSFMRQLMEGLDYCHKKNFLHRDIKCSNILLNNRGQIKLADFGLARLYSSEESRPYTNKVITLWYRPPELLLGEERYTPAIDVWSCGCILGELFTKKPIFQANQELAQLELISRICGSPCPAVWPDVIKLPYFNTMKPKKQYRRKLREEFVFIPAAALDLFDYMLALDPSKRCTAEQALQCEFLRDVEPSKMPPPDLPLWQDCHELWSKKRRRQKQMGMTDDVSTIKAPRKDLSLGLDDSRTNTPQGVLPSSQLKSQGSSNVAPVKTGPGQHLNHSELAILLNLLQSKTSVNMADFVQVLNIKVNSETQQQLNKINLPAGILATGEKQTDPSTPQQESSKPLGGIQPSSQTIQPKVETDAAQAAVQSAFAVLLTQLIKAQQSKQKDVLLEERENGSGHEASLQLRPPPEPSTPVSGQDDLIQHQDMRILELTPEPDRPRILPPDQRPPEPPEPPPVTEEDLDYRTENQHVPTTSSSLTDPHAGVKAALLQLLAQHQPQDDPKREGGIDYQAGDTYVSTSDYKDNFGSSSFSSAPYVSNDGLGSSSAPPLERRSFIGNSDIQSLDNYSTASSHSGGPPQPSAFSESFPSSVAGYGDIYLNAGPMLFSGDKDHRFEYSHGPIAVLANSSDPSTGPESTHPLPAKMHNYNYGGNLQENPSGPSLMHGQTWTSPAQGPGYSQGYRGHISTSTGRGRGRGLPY
T27 sequence (O75909 whole entry partner): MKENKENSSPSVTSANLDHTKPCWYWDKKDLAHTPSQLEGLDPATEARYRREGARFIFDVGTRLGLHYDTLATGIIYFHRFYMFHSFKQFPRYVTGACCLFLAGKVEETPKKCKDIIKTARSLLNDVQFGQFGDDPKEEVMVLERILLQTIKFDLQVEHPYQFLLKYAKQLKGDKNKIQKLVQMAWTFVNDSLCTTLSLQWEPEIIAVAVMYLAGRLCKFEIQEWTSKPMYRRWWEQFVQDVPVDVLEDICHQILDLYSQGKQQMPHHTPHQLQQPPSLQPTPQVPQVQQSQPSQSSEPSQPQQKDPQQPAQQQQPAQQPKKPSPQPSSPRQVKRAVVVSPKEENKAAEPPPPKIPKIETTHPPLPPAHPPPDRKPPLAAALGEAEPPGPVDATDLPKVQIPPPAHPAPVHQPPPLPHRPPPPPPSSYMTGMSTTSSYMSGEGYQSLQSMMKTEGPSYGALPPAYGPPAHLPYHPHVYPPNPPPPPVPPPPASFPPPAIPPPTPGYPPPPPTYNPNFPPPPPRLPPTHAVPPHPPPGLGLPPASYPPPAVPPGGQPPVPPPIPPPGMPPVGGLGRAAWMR
Text: as §1

[28] = molecular target: T28, RIPK3 (Homo sapiens, UniProt Q9Y572)
T28 construct: purchased Thermo Fisher Scientific SelectScreen (plus Nanosyn / Reaction Biology for CDK/cyclin lines)
Text: as §1

[29] = molecular target: T29, STK17A (DRAK1) (Homo sapiens, UniProt Q9UEE5)
T29 construct: purchased Thermo Fisher Scientific SelectScreen (plus Nanosyn / Reaction Biology for CDK/cyclin lines)
T29 sequence (Q9UEE5 whole entry): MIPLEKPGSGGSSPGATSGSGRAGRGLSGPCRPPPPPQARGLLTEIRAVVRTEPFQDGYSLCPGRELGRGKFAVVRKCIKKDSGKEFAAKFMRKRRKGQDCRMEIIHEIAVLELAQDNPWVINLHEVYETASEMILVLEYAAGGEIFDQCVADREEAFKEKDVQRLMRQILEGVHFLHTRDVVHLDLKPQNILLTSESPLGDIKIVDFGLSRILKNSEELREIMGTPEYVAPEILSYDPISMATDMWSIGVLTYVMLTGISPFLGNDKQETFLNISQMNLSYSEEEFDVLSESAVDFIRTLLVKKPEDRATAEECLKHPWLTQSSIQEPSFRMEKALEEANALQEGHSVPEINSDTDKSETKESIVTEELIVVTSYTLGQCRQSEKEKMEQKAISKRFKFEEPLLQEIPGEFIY
Text: as §1

[30] = molecular target: T30, EPHA6 (Homo sapiens, UniProt Q9UF33)
T30 construct: purchased Thermo Fisher Scientific SelectScreen (plus Nanosyn / Reaction Biology for CDK/cyclin lines)
Text: as §1

[31] = molecular target: T31, DAPK2 (Homo sapiens, UniProt Q9UIK4)
T31 construct: purchased Thermo Fisher Scientific SelectScreen (plus Nanosyn / Reaction Biology for CDK/cyclin lines)
Text: as §1

[32] = molecular target: T32, PRKACG (PRKAC gamma) (Homo sapiens, UniProt P22612)
T32 construct: purchased Thermo Fisher Scientific SelectScreen (plus Nanosyn / Reaction Biology for CDK/cyclin lines)
Text: as §1

[33] = molecular target: T33, TTK (Homo sapiens, UniProt P33981)
T33 construct: purchased Thermo Fisher Scientific SelectScreen (plus Nanosyn / Reaction Biology for CDK/cyclin lines)
Text: as §1

[34] = molecular target: T34, KIT D816V (Homo sapiens, UniProt P10721, D816V)
T34 construct: purchased Thermo Fisher Scientific SelectScreen (plus Nanosyn / Reaction Biology for CDK/cyclin lines)
Text: as §1

[35] = molecular target: T35, MYO3A (MYO3 alpha) (Homo sapiens, UniProt Q8NEV4)
T35 construct: purchased Thermo Fisher Scientific SelectScreen (plus Nanosyn / Reaction Biology for CDK/cyclin lines)
Text: as §1

[36] = molecular target: T36, TAOK1 (Homo sapiens, UniProt Q7L7X3)
T36 construct: purchased Thermo Fisher Scientific SelectScreen (plus Nanosyn / Reaction Biology for CDK/cyclin lines)
Text: as §1

[37] = molecular target: T37, ADCK3 (Homo sapiens, UniProt Q8NI60)
T37 construct: purchased Thermo Fisher Scientific SelectScreen (plus Nanosyn / Reaction Biology for CDK/cyclin lines)
Text: as §1

NS(=O)(=O)c1ccc(Nc2ncc3cc4n(c3n2)C2(CCCCC2)C(=O)NN4)cc1 [INX-315]
inhibition at 0.1 µM [1]: 0%
inhibition at 0.1 µM [2]: 12%
inhibition at 0.1 µM [3]: 2%
inhibition at 0.1 µM [4]: 87%
inhibition at 0.1 µM [5]: 10%
inhibition at 0.1 µM [6]: 13%
inhibition at 0.1 µM [7]: 8%
inhibition at 0.1 µM [8]: 14%
inhibition at 0.1 µM [9]: 4%
inhibition at 0.1 µM [10]: 9%
inhibition at 0.1 µM [11]: 28%
inhibition at 0.1 µM [12]: 9%
inhibition at 0.1 µM [13]: 12%
inhibition at 0.1 µM [14]: 64%
inhibition at 0.1 µM [15]: 2%
inhibition at 0.1 µM [16]: 3%
inhibition at 0.1 µM [17]: -5%
inhibition at 0.1 µM [18]: 77%
inhibition at 0.1 µM [19]: 19%
inhibition at 0.1 µM [20]: 0%
inhibition at 0.1 µM [21]: 10%
inhibition at 0.1 µM [22]: -2%
inhibition at 0.1 µM [23]: 57%
inhibition at 0.1 µM [24]: 3%
inhibition at 0.1 µM [25]: 12%
inhibition at 0.1 µM [26]: 25%
inhibition at 0.1 µM [27]: 39%
inhibition at 0.1 µM [28]: -9%
inhibition at 0.1 µM [29]: 2%
inhibition at 0.1 µM [30]: 10%
inhibition at 0.1 µM [31]: 11%
inhibition at 0.1 µM [32]: -12%
inhibition at 0.1 µM [33]: 49%
inhibition at 0.1 µM [34]: 34%
inhibition at 0.1 µM [35]: 6%
inhibition at 0.1 µM [36]: 22%
inhibition at 0.1 µM [37]: 49%
